The values below come from patent US10011833B2, “Bridged bicyclic nucleosides” (MIRAGEN THERAPEUTICS, INC., priority 2013, dated 2018).

Entries after “also recorded” stand apart in the source; their conditions may differ.

One data set deals with miR-208a. As to the kind of experiment: Dual-luciferase reporter assay in HeLa cell line stably expressing miR-208a. It is filed as cell-based. To be noted: HeLa cells expressing miR-208a, 24 hours at 37° C., FIG. 6. How it is done: A HeLa cell line stably expressing miR-208a was generated. Specifically, a miRNA expression vector (Cell BioLabs, Inc.) expressing miR-208a was transfected into HeLa cells. Cells were then selected using a puromycin selection screen and clones which had detectable miR-208a expression as measured by qPCR were isolated (Ct value=˜30).
The cells were plated in a black-walled 96 well plate with 10,000 cells per well. After twenty-four hours following plating, the cells were transfected with a dual-luciferase plasmid containing the miR-208a binding site in the 3′ UTR of the renilla gene and various miR-208a inhibitors (compounds M-11919, M-11920, and M-10101). Compound M-10591 was a non-targeting control. The cells were incubated for 24 hours at 37° C. and then both firefly (as a transfection normalization) and renilla levels were measured by luminescence using the Dual-Luciferase Reporter Assay System (Promega). Data was normalized to cells treated with only the miR-208a dual luciferase plasmid (psi check 208a).
(In general: In a reporter assay the amount or activity of a reporter protein is the signal.)

The subject of the next data set is mature human miR-208a. Description: Duplex melting temperature (Tm) of anti-208a oligonucleotides annealed to complementary RNA. The format is binding. To be noted: for Tm / ΔTm/mod / ΔTm, parent / ΔTm, DNA: RNA complement; for Tm: duplex 1 μM in 0.9% NaCl, in °C (unit assumed); for ΔTm, parent: versus parent 10101; for ΔTm, DNA: versus fully DNA oligo 10931. How it is done: The melting temperature (Tm) of modified 16 nucleotide phosphodiester strands were determined and compared to the Tm of identical 16 nucleotide sequences having natural phosphodiester DNA nucleotides. Specifically, the relative aminoCBBN melting temperature (Tm) compared to the 2′-deoxynucleoside or oxoCBBN nucleoside with the same nucleobase was determined on a per incorporation basis by determining the difference between the melting temperature of the amino-modified 16 nucleotide length phosphodiester strand and that of the identical 16 nucleotide sequence utilizing either the 2′-deoxynucleoside or oxoCBBN phosphodiester DNA nucleotide. Tm differences of substitutions were compared only when they were placed in the same position of the sequence.
For example, the modified anti-208a oligonucleotides were annealed to the complementary sequence, twenty-two nucleotides in length, comprised of RNA nucleosides and a phosphate backbone. The complementary sequence was identical to the endogenous mature miRNA. Thermal denaturation temperatures (Tm) were measured as a maximum of the first derivative plot of melting curvex (A260 vs. Temp). The duplexes were constituted at 1 μM in a 0.9% NaCl buffer. Temperature was ramped from 25° C. to 95° C. at 1° C./min and OD's at 260 nm were read once per 30 seconds. Tm values are averages of at least two measurements.
Duplex melting temperatures for various modifications of a 16 nucleotide sequence, complementary to a nucleotide sequence of mature human miR-208a were measured using a Varian Cary 1E UV-Vis Spectrophotometer. Anti-miRNA 208a oligonucleotide sequences tested included a fully DNA phosphodiester (compound M-10931), four DNA phosphodiester oligonucleotides with 1, 2 or 3 aminoCBBN thymidine residues in place of dT residues (compounds M-1915, M-1916, M-1917, and M-11918), mixed 9 LNA/7 DNA phosphorothioate oligonucleotide (compound M-10101), and 2 mixed LNA/DNA/aminoCBBN phosphorothioate oligonucleotides where LNA thymidines of the parent compound, compound M-10101, were replaced with either 1 or 2 aminoCBBN residues (compounds M-11919 and M-11920). Duplexes were constituted at 1 μM in 0.9% NaCl. Temperature was ramped from 25° C. to 95° C. at 1° C./min and OD's at 260 nm were read once per 30 seconds.

Another data set has as its system RNA Complement. To be noted: 9mer, phosphate backbone, cited from earlier work; for Tm: RNA complement, literature values.
[1] abbreviates: PS backbone, per modification versus parent 10101.

Take “lCs.dTs.dTs.dTs.abTs.abTs.dGs.lCs.dTs.lCs.lGs.dTs. lCs.dTs.lTs.lA [Oligo 11919]”: the “miR208a inhibition activity (dual-luciferase reporter), in words” value in the data set with miR-208a is reported as “slightly less activity compared to the other two inhibitors”. The “affinity for the miR-208a RNA (Tm data), in words” value in the data set on mature human miR-208a (PS backbone oligonucleotides) is on record as “less affinity for the miR-208a RNA than the M-11920 compound”. In addition, in the data set on mature human miR-208a (PS backbone, 10101-like), the Tm turned out to be 80.04. Further, the ΔTm/mod in the data set on mature human miR-208a (setting [1]) is on record as -6.66 ° C./modification. For the same substance, the “ΔTm, parent” value with mature human miR-208a (PS backbone) is reported as -6.66.

Take “dG;aIT;dG;dA;aIT;dA;aIT;dG;dC [DNA_9mer_PO_3aminoLNA-T]”: the Tm in the data set on RNA Complement is 47 °C. The ΔTm/mod in the data set with RNA Complement (versus 3LNA-T parent, literature) was -1 ° C./modification.

For “dG;IT;dG;dA;IT;dA;IT;dG;dC [DNA_9mer_PO_3LNA-T]”, in the data set on RNA Complement, the Tm was 50 °C.

As for “bC.bT.bT.bT.bT.bT.dG.bC.bT.bC.dG.bT.bC.bT.bT. dA [Oligo 10924, reference compound]”, in the data set on mature human miR-208a (phosphate backbone), the Tm was 89.8 and the ΔTm, DNA turned out to be 36.7 °C. Besides, the ΔTm/mod with mature human miR-208a (phosphate backbone, per modification versus DNA) was found to be 2.8 ° C./modification.

On to “lCs.dTs.dTs.dTs.lTs.lTs.dGs.lCs.dTs.lCs.lGs.dTs.lCs. dTs.abTs.lA [Oligo 11920]”, for which, in the data set with miR-208a (listed as M-11920), the “miR208a inhibition activity (dual-luciferase reporter), in words” value is “comparable activity as compound M-10101; also recorded: retains all activity of the optimized M-10101 compound”. In the data set with mature human miR-208a (PS backbone, 10101-like), the Tm is on record as 85.125. Further, the ΔTm/mod in the data set with mature human miR-208a (setting [1]) is -0.7875 ° C./modification. In the data set on mature human miR-208a (PS backbone), the “ΔTm, parent” value is on record as -1.575.

Regarding “dC;dT;dT;dT;dT;dT;dG;dC;dT;dC;dG;dT;dC;dT;dT;dA (antisense CTTTTTGCTCGTCTTA; DNA, backbone not given here) [Oligo 10931, reference compound]”, in the data set with mature human miR-208a (phosphate backbone), the Tm stood at 53.1 and the ΔTm, DNA amounted to 0 °C.

For the substance “ICs;dTs;dTs;dTs;ITs;ITs;dGs;ICs;dTs;ICs;IGs;dTs;ICs;dTs;ITs;IA [Oligo 10101, reference compound]”, the Tm in the data set with mature human miR-208a (PS backbone, 10101-like) was found to be 86.7.
